Like-named read-outs stand apart in the source and are kept apart here.
Tests used:
[1] = system: leukotriene E (LTE) induced skin wheal formation in rat skin; assay: LTE-induced skin wheal formation in rat; type: in vivo; conditions: rat skin wheal, read-out: ID50 (the source's name)
Method: (a) Methodology for LTE-induced Skin Wheal Formation in Rat. The ability of a drug to inhibit leukotriene E (LTE) induced skin wheal formation in rat skin is measured. In this model system a dose of LTE which gives a maximal wheal response, is injected (in 0.05 ml of saline) intradermally into anesthetized rats which have been pretreated for 30 minutes with 50 mg/kg of pyrilamine maleate and 4 mg/kg of methyl […] maleate (both administered intraperitoneally). The animal is then immediately treated with test drug (at 10 mg/kg, i.v.) followed by an intravenous injection of Evans blue (0.5%) into the tail vein of the animal. Thirty minutes later the animals are sacrificed and the increase in capillary permeability induced by LTE is reflected by the migration of dye into the injection point in the skin (the response being quantitated by the size, in mm, of the dye spot in the skin). The average response in 5 animals (4 intradermal injections of LTE per animal) treated with the test compound is compared with the response elicited in a similar group of animals which were not treated with the drug. For oral studies, the test animals are pretreated two hours prior to intradermal injection of LTE.

[2] = system: SRS-A induced contraction of guinea pig ileum; assay: In vitro SRS-A antagonism; conditions: 30 seconds pretreatment
Method: (j) In vitro SRS-A Antagonism
SRS-A was determined by bioassay on the guinea pig ileum using a modification of the method described by Orange et al., Adv. Immunol., 1969, 10, 105. A 1.5 cm segment of the ileum, obtained from male guinea pigs (175-200 g), was suspended in an organ bath containing Tyrodes solution with 10^-6 M atropine sulfate and 10^-6 M pyrilamine maleate. The bath was maintained at 37° C. and gassed with a mixture of 95 percent oxygen and 5 percent carbon dioxide. The ileum was attached to a strain gauge transducer and isotonic contractions recorded by a strip chart recorder. A resting tension of 0.5 g was applied and the tissue allowed to equilibrate for 1 hour.
The SRS-A used in these studies was obtained by challenging a large quantity of chopped lung fragments from actively sensitized guinea pigs with egg albumin in vitro. The animals were sensitized to egg albumin by an intraperitoneal injection of the antigen (1 ml of 10 mg/ml) in saline 28 to 45 days prior to challenge. The in vitro challenge was carried out by first preincubating the lung tissue (40 mg/ml) at 37° C. in Tyrodes solution for 5 minutes, adding the egg albumin ([…] final concentration) to the fragments and after a 10 minute challenge, separating the media containing the SRS-A from the lung tissue by filtration on Whatman #1 filter paper. The concentration of SRS-A in the filtrate was calibrated by comparison of the contraction amplitude elicited in the bioassay system by a given volume of the supernatant with contractions obtained by varying concentrations of histamine. One unit of SRS-A is equivalent to that quantity which will give the same contraction as 5 ng of histamine. After standarization, the SRS-A was stored in small aliquots at -80° C. for further use. […] SRS-A antagonism was determined by pretreating the ileum with drug for 30 seconds prior to the addition of a concentration of SRS-A which have a submaximal response, determination of the amplitude of contraction elicited in the presence of drug and then washing the ileum with Tyrodes. […]

[3] = system: leukotriene E induced bronchoconstriction; assay: Guinea pig bronchoconstriction, in vivo (aerosol); parameters: species or system guinea pig (Hartly strain); conditions: aerosol at concentration inhibiting bronchoconstriction by 80%
Method: (c) Guinea Pig Bronchoconstriction, In Vivo (Aerosol):
Male guinea pigs (Hartly strain) weighing 300 to 500 g are anesthetized with urethane (2 g/kg) intraperitoneally and a polyethylene cannula is inserted into the jugular vein for drug administration. Tracheal pressure is recorded from a cannula inserted in the trachea and connected to a Statham pressure transducer. After surgical preparation of the animals, a period of time is allowed for pulmonary functions to stabilize. The test compound is administered according to the following protocol. Propranolol (0.1 mg/kg) is administered intravenously while the animals breathed spontaneously. Five minutes thereafter, the animals are exposed for a five minute period to a 1% (w/v) aerosol solution of test compound (adjusted to an alkaline pH where necessary for drug solubilization) or to distilled water of the appropriate pH (for control purposes). A Monaghan (Model 750) ultrasonic nebulizer is used to administer all test compounds by inhalation. The nebulizer ultrasonic frequency is adjusted to produce particles in the 1-8μ diameter range (average 3μ). Aqueous solutions are prepared fresh and introduced into the chamber of the nebulizer. The output of the nebulizer is made available to the animal by directing a bias flow of aerosol through a y tube connected to the tracheal cannula. At the end of the exposure period, the animals are paralyzed with succinylcholine (1.2 mg/kg, i.v.) and mechanically respirated (Harvard rodent respirator) at 40 breaths/minute and 2.5 cc tidal volume. Animals are then challenged with a maximum constrictory dose of leukotriene E delivered intravenously 30 seconds after administration of the succinylcholine.
The change (cm H2 O) between pre and peak ventilatory pressure readings is averaged for three control animals and five drug treated animals. The percent inhibition is calculated from the following formula:
(Control-Drug Tested/Control)×100
When various drug concentrations are tested, the percent inhibition at each concentration is plotted as log concentration (abscissa) versus percent inhibition (ordinate) and the IC50 is determined from linear regression analysis.
In order to determine the aerosol half-life (t 1/2), the animals are prepared as described above, except that the time between aerosol exposure and challenge with leukotriene E is varied. All compounds are administered at the concentration necessary to inhibit leukotriene-induced bronchoconstriction by 80%. Biological half-life is calculated from plots of time (abscissa) versus log percent inhibition (ordinate).

[4] = system: histamine-induced constriction in guinea pig ilea; assay: Antagonism of histamine-induced constriction in guinea pig ilea; conditions: 1×10^-7 M histamine
Method: (f) Antagonism of Histamine-induced Constriction in Guinea Pig Ilea
Antihistaminic activity was determined on a segment of guinea pig ileum that was suspended in a 37° C. bath of oxygenated Tyrodes solution. At 4 minute intervals, the ileum was challenged with 1×10^-7 M histamine for sufficient time to produce a peak contraction and then washed with fresh Tyrodes solution. After the tissue response to histamine had stabilized, the ileum was pretreated with the standard antihistaminic compound, pyrilamine maleate, for 1 minute prior to rechallenge with histamine, the contraction recorded, and the tissue washed with Tyrodes solution. […] By the IC50 for pyrilamine maleate in the test system was 1×10^-8 M. IC50 's for test drugs were determined by this same procedure.

SMILES | ED50 ([1]; iv) [mg/kg] | ED50 ([1]; po) [mg/kg] | IC50 [2] [nM] | Biological half-life [3] [min] | IC50 [4] [nM]
CC(C)c1ccc2nc3ccc(C(=O)NCCCCn4ccnc4)cn3c(=O)c2c1 [Compound A, N-[4-(1H-imidazol-1-yl)butyl]-2-(1-methylethyl)-11-oxo-11H-pyrido[2,1-b]quinazoline-8-carboxamide] | 30 | 46 | 1000 | 56 | 1000
CC(C)c1ccc2nc3ccc(C(=O)NCCCCc4cccnc4)cn3c(=O)c2c1 [Compound B, 2-(1-methylethyl)-N-[4-(3-pyridyl)butyl]-11-oxo-11H-pyrido[2,1-b]quinazoline-8-carboxamide] | 15 | 70 | 1000 | 7 | 2000
